Laboratory results as given in patent US20190350940A1, “PLATINUM COMPOUNDS, COMPOSITIONS, AND USES THEREOF” (priority 2015, published 2019).
Values joined by “and” are separate entries in the source; they are usually repeats but may differ in a detail not shown here. Identical values can stand only once. “Also recorded” adds a separate entry of the source.

Assays:
physchem = assay type: physicochemical; settings: for solubility at 1 hr: pH 4, aqueous buffer, thermodynamic from solid, Saturated solubility
Procedure: The formulations were prepared by stirring at room temperature for 1 hr. They were protected from light to minimize the formation of the amine product (Impurity 1) during the formulation.
The drug product process begins by preparation of a chilled, solution of 2.5% mannitol and 5 mM citrate buffer (pH about 4-5) solution to which Compound 8 drug substance is added at concentration of 5 mg/mL. […] The bulk solution is filter (0.2 μm) sterilized, aseptically filled into vials, and lyophilized. To minimize Compound 8 degradation, the bulk solution is maintained chilled and protected from light during processing. Lyophilizing Compound 8 as a dry powder was selected as the best means to minimize hydrolysis during storage. Finally, filter sterilization was chosen as the most benign means to sterilize the drug product.

[1] = pH stability: buffering capacity (5 mM versus 100 mM citrate); assay type: physicochemical; settings: 5 mM versus 100 mM citrate saline pH about 4; impurity profile over 10 hr
Procedure: In order to assess the effect of the buffering capacity, formulations were made with 5 mM and 100 mM citrate saline pH about 4. Two formulations were made in 100 mM citrate, one at 0.1 mg/ml and the other at 1 mg/ml. A third formulation of 5 mM citrate at 1 mg/ml was made for comparison to determine whether increasing the buffering capacity improved the stability of the formulation.

[2] = Vial selection: clear versus amber (light versus dark); assay type: physicochemical; settings: 5 mM citrate buffer saline pH about 4, room temperature 24 hours
Procedure: To compare light versus dark conditions, Compound 8 was formulated in 5 mM citrate buffer saline at pH about 4 and placed into two separate vials (one clear and the other amber). The formulations were stored at room temperature for 24 hours and the amount of Impurity 1 and Impurity 2 was observed. From the FIGS. 4 and 5, it can be seen that exposing the Compound 8 solution to light in a clear vial caused an increase in the amount of Impurity 1 in comparison to the solution contained in an amber vial (˜10% Impurity 1 compared to ˜0.75% Impurity 1). […] Also, from these experiments it was concluded that the formation of Impurity 2 is not photosensitive but dependent upon the pH of the formulation.

[3] = Single dose intravenous dose range-finding toxicity study in Beagle dogs (Compound 8-TX-002); assay type: in vivo, dog; settings: both sexes, Beagle, in vivo; single IV dose, dog
Procedure: (§1) This study (Compound 8-TX-002) was conducted to evaluate and characterize the acute toxicity and to determine an MTD of Compound 8 when administered once via IV injection to the dog, and to assist in dose selection for a subsequent dog cardiovascular study (Compound 8-TX-005). The test article, Compound 8, was formulated prior to dosing, as a solution in 5 mM citrate buffered saline (0.9% sodium chloride), pH about 4-4.5 at nominal concentrations of 1.2, 2.4, 4.0, and 4.8 mg/mL. Dose formulations were all within the acceptance criteria (+10% of target concentration) ranging from 92.1 to 99.8 percent of target concentration.
(§2) Groups of 2 animals each (1 male, 1 female) received Compound 8 at doses of 3, 6, 10, or 12 mg/kg. Assessment of toxicity was based on mortality, clinical observations, body weight, and qualitative food assessment; physical examinations; and clinical pathology. Toxicokinetic assessment was conducted for platinum concentration in the plasma and plasma ultrafiltrate.

Beagle dogs = assay: as above; assay type: in vivo, dog
Procedure: as §1, §2

[4] = tested on: A2780 human ovarian cancer; assay: A2780 ovarian xenograft model; assay type: in vivo, mouse; settings: mouse, in vivo, 20 mg/kg
Procedure: The effect of Compound 8 on tumor growth inhibition (TGI) was evaluated in the A2780 human ovarian cancer nude mouse (female Crl:NU(NCr)-Foxn1^nu) xenograft model.

[5] = tested on: BxPC-3 human pancreatic adenocarcinoma; assay: BxPC-3 pancreatic xenograft model; assay type: in vivo, mouse; settings: female, Crl:NU(NCr)-Foxn1^nu nude, mouse, in vivo, 20 mg/kg, 13 day
Procedure: The effect of Compound 8 on TGI was evaluated in the BxPC-3 human pancreatic adenocarcinoma nude mouse (female Crl:NU(NCr)-Foxn1^nu) xenograft model.

[6] = tested on: MIA Paca-2 human pancreatic adenocarcinoma; assay: MIA Paca-2 pancreatic xenograft model; assay type: in vivo, mouse; settings: mouse, in vivo, 10 mg/kg
hERG = target: T1, hERG (Homo sapiens, UniProt Q12809); assay: Binding to membrane preparations of hERG using a radiolabeled antagonist
T1 construct: host or cells: membrane preparations
Procedure: An in vitro evaluation of the binding of Compound 8 to membrane preparations of hERG using a radiolabeled antagonist was performed.

[7] = Total plasma and plasma ultrafiltrate platinum pharmacokinetics in mouse; assay type: in vivo
Procedure: Nonclinical studies were performed to evaluate the PK of platinum in plasma after IV administration of Compound 8 in the mouse, rat, and dog. The analyses included platinum levels both in total plasma as well as plasma ultrafiltrate.
Compound 8 was administered in 2 different formulations in mice. The formulation used in pharmacology studies was 5% dimethyl sulfoxide (DMSO)/10% Solutol/Saline, and the formulation used in PK studies was 5 mM citrate pH about 4; this latter formulation is that used in GLP toxicology studies in the rat and is the human clinical formulation.

CYP1A2 = target: T2, CYP1A2 (Homo sapiens, UniProt P05177); assay: CYP inhibition, 1A2; assay type: in vitro ADME
T2 construct: host or cells: microsomes are mentioned

CYP2C8 = CYP2C8 (Homo sapiens, UniProt P10632); assay: CYP inhibition, 2C8; assay type: in vitro ADME
CYP2C9 = CYP2C9 (Homo sapiens, UniProt P11712); assay: CYP inhibition, 2C9; assay type: in vitro ADME
CYP2D6 = CYP2D6 (Homo sapiens, UniProt P10635); assay: CYP inhibition, 2D6; assay type: in vitro ADME
Chain of CYP2D6 (P10635 whole entry): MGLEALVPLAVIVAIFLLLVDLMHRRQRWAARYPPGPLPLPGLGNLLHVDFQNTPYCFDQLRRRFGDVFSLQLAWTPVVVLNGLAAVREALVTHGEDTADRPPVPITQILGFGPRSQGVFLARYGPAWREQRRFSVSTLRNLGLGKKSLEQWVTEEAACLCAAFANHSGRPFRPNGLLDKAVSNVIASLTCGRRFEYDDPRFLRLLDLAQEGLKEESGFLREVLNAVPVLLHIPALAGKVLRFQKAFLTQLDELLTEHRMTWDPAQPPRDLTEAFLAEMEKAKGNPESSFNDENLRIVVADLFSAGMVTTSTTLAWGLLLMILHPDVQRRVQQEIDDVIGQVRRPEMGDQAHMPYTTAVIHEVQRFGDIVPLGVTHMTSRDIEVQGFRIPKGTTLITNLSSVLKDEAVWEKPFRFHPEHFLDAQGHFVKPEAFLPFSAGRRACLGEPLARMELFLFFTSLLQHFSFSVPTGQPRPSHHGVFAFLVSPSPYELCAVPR

T1 sequence (Q12809 whole entry): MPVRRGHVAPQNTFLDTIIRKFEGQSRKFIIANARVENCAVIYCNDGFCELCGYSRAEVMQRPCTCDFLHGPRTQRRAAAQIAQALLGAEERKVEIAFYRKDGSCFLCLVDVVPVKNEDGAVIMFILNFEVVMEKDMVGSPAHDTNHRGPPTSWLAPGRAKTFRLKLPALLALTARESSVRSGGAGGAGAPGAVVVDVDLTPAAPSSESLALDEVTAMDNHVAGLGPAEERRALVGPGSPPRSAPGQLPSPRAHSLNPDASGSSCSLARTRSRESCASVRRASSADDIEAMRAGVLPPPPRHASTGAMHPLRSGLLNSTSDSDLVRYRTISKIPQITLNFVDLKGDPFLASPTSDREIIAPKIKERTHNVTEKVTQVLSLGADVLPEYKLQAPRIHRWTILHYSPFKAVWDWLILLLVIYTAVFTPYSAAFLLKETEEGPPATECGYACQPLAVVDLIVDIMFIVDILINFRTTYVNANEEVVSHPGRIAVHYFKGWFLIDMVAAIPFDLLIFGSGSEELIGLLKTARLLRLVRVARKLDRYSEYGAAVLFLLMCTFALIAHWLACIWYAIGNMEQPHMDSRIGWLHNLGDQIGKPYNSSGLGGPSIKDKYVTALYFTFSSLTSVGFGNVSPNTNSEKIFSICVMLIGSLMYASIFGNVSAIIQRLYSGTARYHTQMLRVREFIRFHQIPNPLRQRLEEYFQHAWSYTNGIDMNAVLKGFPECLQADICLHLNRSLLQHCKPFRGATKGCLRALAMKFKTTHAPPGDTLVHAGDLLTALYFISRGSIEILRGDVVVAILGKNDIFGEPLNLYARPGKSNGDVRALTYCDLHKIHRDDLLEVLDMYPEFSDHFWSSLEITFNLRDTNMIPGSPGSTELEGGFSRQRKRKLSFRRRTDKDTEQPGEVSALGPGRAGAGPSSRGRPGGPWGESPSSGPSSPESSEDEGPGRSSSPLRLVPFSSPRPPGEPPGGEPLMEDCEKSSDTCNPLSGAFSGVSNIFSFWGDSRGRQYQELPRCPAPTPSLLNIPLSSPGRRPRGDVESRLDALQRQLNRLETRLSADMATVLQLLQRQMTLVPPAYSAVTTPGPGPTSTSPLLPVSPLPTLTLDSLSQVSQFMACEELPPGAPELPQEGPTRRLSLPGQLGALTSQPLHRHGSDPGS
Chain of CYP2C9 (P11712 whole entry): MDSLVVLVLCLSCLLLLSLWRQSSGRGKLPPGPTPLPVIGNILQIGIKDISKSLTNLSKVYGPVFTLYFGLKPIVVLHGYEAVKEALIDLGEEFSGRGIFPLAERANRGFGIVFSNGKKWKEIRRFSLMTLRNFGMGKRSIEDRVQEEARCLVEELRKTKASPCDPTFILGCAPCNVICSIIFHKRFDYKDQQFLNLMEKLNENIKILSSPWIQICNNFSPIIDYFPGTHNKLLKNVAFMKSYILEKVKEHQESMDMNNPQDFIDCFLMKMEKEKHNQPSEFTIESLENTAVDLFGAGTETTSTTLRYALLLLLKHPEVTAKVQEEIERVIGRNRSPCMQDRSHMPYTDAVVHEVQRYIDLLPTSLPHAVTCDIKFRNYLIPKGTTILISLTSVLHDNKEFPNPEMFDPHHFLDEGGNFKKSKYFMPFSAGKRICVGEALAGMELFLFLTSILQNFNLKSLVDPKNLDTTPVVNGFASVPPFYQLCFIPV
T2 sequence (P05177 whole entry): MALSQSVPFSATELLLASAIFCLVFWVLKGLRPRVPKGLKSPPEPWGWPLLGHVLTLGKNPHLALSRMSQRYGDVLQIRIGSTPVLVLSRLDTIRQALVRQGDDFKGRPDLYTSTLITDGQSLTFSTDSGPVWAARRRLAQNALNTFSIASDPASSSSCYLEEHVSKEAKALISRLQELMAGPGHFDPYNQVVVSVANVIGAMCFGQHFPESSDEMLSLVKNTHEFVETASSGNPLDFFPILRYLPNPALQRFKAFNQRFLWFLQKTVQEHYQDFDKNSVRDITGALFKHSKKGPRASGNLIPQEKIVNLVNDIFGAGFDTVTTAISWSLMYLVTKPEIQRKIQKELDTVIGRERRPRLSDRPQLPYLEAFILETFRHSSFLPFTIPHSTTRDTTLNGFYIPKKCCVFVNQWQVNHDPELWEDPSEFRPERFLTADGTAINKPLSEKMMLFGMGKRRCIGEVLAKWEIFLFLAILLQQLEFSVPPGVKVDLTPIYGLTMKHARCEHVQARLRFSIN
Chain of CYP2C8 (P10632 whole entry): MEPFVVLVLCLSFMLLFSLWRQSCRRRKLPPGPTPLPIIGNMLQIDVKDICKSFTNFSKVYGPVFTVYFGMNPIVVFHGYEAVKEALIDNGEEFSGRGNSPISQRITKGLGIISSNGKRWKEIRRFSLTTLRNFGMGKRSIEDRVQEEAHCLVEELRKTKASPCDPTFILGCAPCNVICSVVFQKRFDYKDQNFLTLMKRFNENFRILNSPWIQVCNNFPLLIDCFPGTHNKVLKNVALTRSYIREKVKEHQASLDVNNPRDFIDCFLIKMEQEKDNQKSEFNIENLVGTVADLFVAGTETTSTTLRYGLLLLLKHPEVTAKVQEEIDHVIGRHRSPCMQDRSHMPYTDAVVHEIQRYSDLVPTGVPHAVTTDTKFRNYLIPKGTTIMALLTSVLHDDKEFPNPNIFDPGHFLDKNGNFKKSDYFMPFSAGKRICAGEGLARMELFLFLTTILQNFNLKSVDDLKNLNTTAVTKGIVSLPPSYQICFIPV

Molecule CC(=O)[O][Pt]([NH2])([NH2])([Cl])([Cl])[O]C(=O)NCCCCCN1C(=O)C=CC1=O [Compound 8] has a solubility at 1 hr (physchem; overall estimate) of ~9 mg/mL, a solubility at 1 hr (physchem; range of five different lots) of 8 to 23 mg/mL and a solubility (physchem; pH 4.5, aqueous buffer, Saturated solubility of the drug substance) of 16 to 17 mg/mL. For the same molecule, the “Effect of buffering capacity on stability” value [1] was “little effect”, the “Amount of Impurity 1” value ([2]; amber vial (dark)) was ~0.75% and the “Amount of Impurity 1” value ([2]; clear vial (light)) was ~10%. The “Amount of Impurity 2” value ([2]; clear vial (light)) was 0.5%, the MTD [3] was 10 mg/kg and the “Decrease in body weight” value (Beagle dogs; 12 mg/kg animals) was “exceeded 10%”. For the same molecule, the “Chemistry, coagulation, or urinalysis parameters” value (Beagle dogs; 3, 6, 10, 12 mg/kg) was “no definitive effects”, the Hematology parameters (Beagle dogs; both sexes, all groups (3, 6, 10, 12 mg/kg)) was “decreases in reticulocytes, red cell mass, neutrophils and platelets” and the MTD (Beagle dogs; single IV dose, dog, corresponds to 10 mg/kg) was 200 mg/m^2 and 205 (MTD) mg/m^2. For the same molecule, the “Mortality and treatment-related clinical observations” value (Beagle dogs; up to 12 mg/kg (240 mg/m^2)) was “no mortalities or treatment related clinical observations; also recorded: no mortalities”, the “Mean maximal BW loss” value [4] was 7.4% and the Treatment-related side effects [5] was “swollen tails on Day 13 in all animals”. For the same molecule, the “Mean maximal BW loss” value [6] was 3.7%, the Treatment-related adverse effects [6] was “No treatment-related adverse effects” and the hERG binding finding (hERG; 3 uM, conjugated to human serum albumin) was “no evidence for significant cardiovascular toxicity”. The hERG binding finding (hERG; 10 uM, unconjugated to human serum albumin) was “no evidence for significant cardiovascular toxicity”, the “Dose (MTD)” value [7] was 41.8 (MTD) mg/m^2 and the “Mean difference of AUC(0-48h) between the 2 formulations” value ([7]; in vivo) was 5%. For the same molecule, the “Portion of platinum in circulation free in the ultrafiltrate” value ([7]; in vivo) was < 1%, the “Ultrafiltrate platinum to total ratio at Cmax” value ([7]; in vivo) was 0.06 and the “Ultrafiltrate to total AUC ratio” value ([7]; in vivo) was 0.0056. For the same molecule, the “Plasma free platinum AUC” value ([7]; in vivo, iv) was 20.6 µM·h, the “Plasma free platinum Cmax” value ([7]; in vivo, iv) was 15.9 µM and the IC50 (CYP1A2) was 550 nM. It also gave an IC50 (CYP2C8) of 680 nM, an IC50 (CYP2C9) of 950 nM and an IC50 (CYP2D6) of 720 nM.
